{"source": "paper PMC11449324", "about": "“Functional comparison of human and murine equilibrative nucleobase transporter 1” (PLOS ONE, 2024)", "key": {"mENBT1": {"biological_target": "T1, mENBT1 (Mus musculus, UniProt A2AVZ9)", "T1 construct": "Oligonucleotides corresponding to the coding region of SLC43A3 (NM_001278201) or slc43a3 (NM_021398); expressed in transfected cells; HEK293-mslc43a3", "T1 sequence (A2AVZ9 1-502)": "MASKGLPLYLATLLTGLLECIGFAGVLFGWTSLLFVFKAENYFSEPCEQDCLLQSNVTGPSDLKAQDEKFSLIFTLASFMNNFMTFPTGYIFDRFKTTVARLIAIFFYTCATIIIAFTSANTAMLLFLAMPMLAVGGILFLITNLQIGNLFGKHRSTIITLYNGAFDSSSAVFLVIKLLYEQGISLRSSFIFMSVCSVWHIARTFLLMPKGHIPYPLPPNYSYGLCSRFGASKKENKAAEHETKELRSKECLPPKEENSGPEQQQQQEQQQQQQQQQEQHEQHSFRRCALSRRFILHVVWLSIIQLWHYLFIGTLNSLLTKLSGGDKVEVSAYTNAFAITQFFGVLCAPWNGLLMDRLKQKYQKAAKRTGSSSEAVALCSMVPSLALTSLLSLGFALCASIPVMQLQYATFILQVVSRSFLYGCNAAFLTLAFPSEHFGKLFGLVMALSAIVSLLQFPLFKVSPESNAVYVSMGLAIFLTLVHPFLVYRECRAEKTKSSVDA", "test": "Inhibition of ENBT1-mediated substrate uptake in HEK293-mslc43a3 cells", "assay_type": "cell-based", "description": "Harvested cells were suspended in nominally sodium-free N-methyl-D-glucamine (NMG) buffer (140 mM NMG, 5 mM KCl, 4.2 mM KHCO3, 0.36 mM K2HPO4, 0.44 mM KH2PO4, 0.5 mM MgCl2, 1.3 mM CaCl2, 10 mM HEPES, pH 7.4), to minimize potential contribution of sodium-dependent concentrative nucleoside transporter-mediated uptake. Additionally, cells were incubated for 15 minutes at room temperature with 10 μM dipyridamole (DY), an equilibrative nucleoside transporter (ENT) inhibitor, to block equilibrative nucleoside transporter–mediated uptake. The substrate uptake assay was initiated by adding 250 μL cell suspension to 250 μL [^3H] labeled substrate, layered over 21:4 silicone:mineral oil (200 μL) in 1.5 mL microcentrifuge tubes (conducted at room temperature). The uptake reaction was terminated after 2 seconds by centrifugation of the cells through the oil layer at ~10,000 g. This is the minimum incubation time achievable with this oil-stop technique, and it was found in previous studies that these short incubation times were necessary to assess the kinetics of this transporter. The aqueous layer was removed via vacuum-powered aspirator, and the tube was washed with 1 mL of NMG buffer prior to removal of the oil layer. The resulting cell pellet was digested in 250 μL 1 M NaOH overnight (~16 hours), with 220 μL aliquots of digested cells assessed for radioactive content using standard liquid scintillation counting techniques in a Beckman Coulter LS6500 scintillation system (Brea, CA).\nTo assess the ability of compounds to inhibit substrate uptake, cells were incubated with the inhibitor for 15 minutes prior to initiating the uptake assay, or exposed to the cells simultaneously with the radiolabelled substrate. […] After subtraction of the non-mediated uptake component, the degree of inhibition was calculated as the ratio of cellular accumulation in the presence of test compound to that measured in its absence (X 100).\nEach assay was repeated 5–6 times using independent cell isolations and reagent preparations. In addition, within each assay, there were two or three technical replicates (using the same reagents and cells) that were averaged to obtain a single data point. Nonlinear curves were fitted to data (presented as mean ± SD from the 5–6 independent experiments), and statistical analyses were done using GraphPad Prism 10 software. In all cases, if the P-value determined from a statistical test was less than 0.05, the null hypothesis was rejected and the alternative hypothesis was favoured. Significant differences between groups were assessed using either Student’s t-test or ordinary one- or two-way analysis of variance (ANOVA) followed by a post hoc Šidák multiple comparison test, as appropriate. For influx and cell viability analyses, significant differences in Km and EC50 value, respectively, between the hENBT1 and mENBT1 data sets, were determined by the extra sum-of-squares F test. For inhibition analyses, the Ki values were determined from the IC50 values using the specified substrate concentration [S], based on the Cheng-Prusoff equation Ki = IC50/(1 + [S]/Km) and experimentally obtained Km values."}, "[1]": {"test_system": "HEK293-EV cells (ENBT1-deficient)", "test": "Radiolabelled substrate uptake in empty vector HEK293-EV cells", "assay_type": "cell-based, human", "conditions": "2 seconds", "description": "This is the minimum incubation time achievable with this oil-stop technique, and it was found in previous studies that these short incubation times were necessary to assess the kinetics of this transporter. The aqueous layer was removed via vacuum-powered aspirator, and the tube was washed with 1 mL of NMG buffer prior to removal of the oil layer. […] In transfected-HEK293 cell lines, total uptake was defined as uptake of radiolabeled substrate in cells overexpressing recombinant hENBT1 or mENBT1. […] This non-mediated component would include passive diffusion into the cells and radiolabelled substrate remaining extracellularly in the digested cell pellet after processing the samples. […] ENBT1-mediated uptake was calculated as total uptake minus the non-mediated uptake. Cell water volume (μL) was estimated by incubating cells with ^3H2O for 3 minutes, centrifuging the cells through the oil layer at ~10,000 g, assessing 100 μL of the supernatant for radioactive content, and then processing as described above. Total cellular water volume was determined from the ratio of the decays per minute of the cell pellet, to the decays per minute of the supernatant, allowing for inter-experimental normalization via calculation of picomoles of substrate accumulated per microliter of cell-associated water."}}, "note": "Like-named read-outs stand apart in the source and are kept apart here."}
{"smiles": "Sc1ncnc2nc[nH]c12", "note": "[6-MP, 6-Mercaptopurine]", "values": [{"measurement": "Ki", "setting": "mENBT1; HEK293-mslc43a3, 30 μM [3H]adenine, 2 seconds, Cheng-Prusoff, read-out: Ki for inhibition of ENBT1-mediated [3H]adenine uptake", "value": "7.4 ± 1.3", "unit": "mM"}, {"measurement": "inhibition of ENBT1-mediated [3H]adenine uptake", "setting": "mENBT1; at highest concentration of 6-MP tested (1 mM), HEK293-mslc43a3", "value": "complete inhibition was not obtained"}, {"measurement": "Ki relative to its Km for the transporter", "setting": "mENBT1; mENBT1", "value": 30, "unit": "fold"}, {"measurement": "uptake of radiolabelled substrate", "setting": "[1]", "value": "minimal uptake"}]}
{"smiles": "Nc1ncnc2[nH]cnc12", "note": "[adenine, Adenine]", "values": [{"measurement": "Ki", "setting": "mENBT1", "value": "0.051 ± 0.013", "unit": "mM"}, {"measurement": "inhibition of ENBT1-mediated [14C]6-MP uptake", "setting": "mENBT1; at 1 mM adenine, HEK293-mslc43a3", "value": "near complete inhibition"}, {"measurement": "uptake of radiolabelled substrate", "setting": "[1]", "value": "minimal uptake"}]}
